According to patent US4309425A (priority 1980, dated 1982):
Like-named read-outs stand apart in the source and are kept apart here.

Key:
[1] = tested on: Sclerotinia sclerotiorum; assay: white mold on carrot sections dip test; conditions: 100 ppm dip, 20° C., six days
Description: Surface-sterilized carrot sections were dipped two minutes in a 100 ppm solution of the compounds of this invention. Additional sections were dipped in a check solution which contained 500 ppm Alkanol® XC (sodium alkyl naphthalene sulfonate). After inoculation by placing a mycelial plug of Sclerotinia sclerotiorum on each carrot section, the test was held at 20° C. for six days.
The untreated carrot sections were completely invaded with the mycelial growth of white mold fungus, but the treated sections had little or no growth by this disease causing organism.

[2] = tested on: Venturia inaequalis; assay: apple scab residual wash-off test; assay type: in vivo; conditions: 1/2 inch simulated rainfall, 10-12 days
Description: Compounds of this invention are dissolved in acetone in an amount equal to 6% of the final volume and then suspended at a concentration of 20 ppm in purified water containing 25 ppm of the surfactant Alkanol® XC (sodium alkyl naphthalene sulfonate). This suspension is sprayed to the point of run-off on apple seedlings. The following day, 1/2 inch of simulated rainfall is applied to the foliage of the plants. When the foliage is dry, the plants are inoculated with a spore suspension of the fungus Venturia inaequalis and incubated in a growth room for 10-12 days. Disease ratings are then made. […] Phytotoxicity in the form of foliar burn was observed on the plants in association with disease control.

[3] = tested on: Venturia inaequalis; assay: apple scab photostability test; assay type: in vivo; conditions: xenon arc 3500 foot candles 16 hours, 10-12 days
Description: Compounds of this invention are dissolved in acetone in an amount equal to 6% of the final volume and then suspended at a concentration of 20 ppm in purified water containing 25 ppm of the surfactant Alkanol® XC (sodium alkyl naphthalene sulfonate). This suspension is sprayed to the point of run-off on apple seedlings. When the foliage is dry, the plants are exposed to 3500 foot candles of light from a xenon arc source for a period of 16 hours. This light source approximates the spectrum of natural sunlight, and is used to assess photostability of the compounds of this invention on plant foliage. The following day, the plants are inoculated with a spore suspension of the fungus Venturia inaequalis and incubated in a growth room for 10-12 days. Disease ratings are then made. […] Phytotoxicity in the form of foliar burn was observed on some of the plants in association with disease control.

[4] = tested on: Erisyphe cichoracearum; assay: cucumber powdery mildew curative test; assay type: in vivo; conditions: Cucumis sativus, 144 h, sprayed day after inoculation, additional 6 days
From the text: Cucumber plants are inoculated with a spore suspension of the fungus Erisyphe cichoracearum and in a growth room overnight. The following day, the plants are sprayed to the point of run-off with a suspension prepared by dissolving compounds of this invention in acetone in an amount equal to 6% of the final volume and then suspended at a concentration of 20 ppm in purified water containing 25 ppm of the surfactant Alkanol® XC (sodium alkyl naphthalene sulfonate). Plants are returned to the growth room for an additional 6 days when disease ratings are then made. […] Phytotoxicity in the form of foliar burn or growth reduction was observed on some of the plants in association with disease control.

[5] = tested on: Erysiphe cichoracearum; assay: cucumber powdery mildew residual wash-off test; assay type: in vivo; conditions: Golovinomyces cichoracearum, 168 h, 1/2 inch simulated rainfall, 7 days
Description: Compounds of this invention are dissolved in acetone in an amount equal to 6% of the final volume and then suspended at a concentration of 20 ppm in purified water containing 25 ppm of the surfactant Alkanol® XC (sodium alkyl naphthalene sulfonate). This suspension is sprayed to the point of run-off on cucumber seedlings. The following day, 1/2 inch of simulated rainfall is applied to the foliage of the plants. When the foliage is dry, the plants are inoculated with a spore suspension on the fungus Erysiphe cichoracearum and incubated in a growth room for 7 days. Disease ratings are then made.

[6] = tested on: Erysiphe cichoracearum; assay: cucumber powdery mildew photostability test; assay type: in vivo; conditions: Golovinomyces cichoracearum, 168 h, xenon arc 3500 foot candles 16 hours, 7 days
Description: Compounds of this invention are dissolved in acetone in an amount equal to 6% of the final volume and then suspended at a concentration of 20 ppm in purified water containing 25 ppm of the surfactant Alkanol® XC (sodium alkyl naphthalene sulfonate). This suspension is sprayed to the point of run-off in cucumber seedlings. When the foliage is dry, the plants are exposed to 3500 foot candles of light from a xenon arc source for a period of 16 hours. This light source approximates the spectrum of natural sunlight, and is used to assess photostability of the compounds of this invention on plant foliage. The following day, the plants are inoculated with a spore suspension of the fungus Erysiphe cichoracearum and incubated in a growth room for 7 days. Disease ratings are then made.

[7] = tested on: Eggs of the beet armyworm (Spodoptera exigua); assay: beet armyworm egg (ovicidal) test, % eggs failing to hatch; assay type: in vivo; conditions: 72 h, three days, read-out: % Control (% eggs failing to hatch); for mortality at 1 %: 1% in acetone
Description: Eggs of the beet armyworm (Spodoptera exigua), laid on cellophane discs each containing 50-75 eggs, were placed in petri dishes and lightly sprayed with 1% concentrations of the indicated compounds in acetone solution. Three days later, percent control (% eggs failing to hatch) was determined.
Eggs of the beet armyworm (Spodoptera exigua), laid on cellophane discs each containing 50-75 eggs, were placed in petri dishes and lightly sprayed with 200 ppm concentration of the indicated compounds in acetone solution. Three days later, percent control (% eggs failing to hatch) was determined.

[8] = tested on: Rhizoctonia solani; assay: Rhizoctonia solani infested soil test, cotton; assay type: in vivo; conditions: 192 h, 1.5 kg/ha, 8 days
From the text: Rhizoctonia solani-infested soil was placed in a 900 cc cup. Compounds of this invention were mixed at a rate of 1.5 kg/ha in a section 2" wide×2" deep×4" long to simulate an in-the-row application. Five cotton seeds were planted in the treated soil. After 8 days, the cotton plants were removed and rated for disease control.

[9] = tested on: Puccinia graminis var. tritici; assay: whole plant or invertebrate; assay type: in vivo; conditions: 192 h, read-out: % control wheat rust in preventive test
[10] = tested on: Phytophthora infestans; assay: whole plant or invertebrate; assay type: in vivo; conditions: in Solanum lycopersicum, 96 h, read-out: % control tomato late blight in a photostability test
[11] = tested on: Erysiphe cichoracearum; assay: cucumber powdery mildew preventive test; assay type: in vivo; conditions: Golovinomyces cichoracearum, 168 h, 7 days
Description: Compounds of this invention are dissolved in acetone in an amount equal to 6% of the final volume and then suspended at a concentration of 20 ppm in purified water containing 25 ppm of the surfactant Alkanol® XC (sodium alkyl naphthalene sulfonate). This suspension is sprayed to the point of run-off on cucumber seedlings. The following day, the plants are inoculated with a spore suspension of the fungus Erysiphe cichoracearum and incubated in a growth room for 7 days. Disease ratings are then made. […] Phytotoxicity in the form of foliar burn or growth reduction was observed on some of the plants in association with disease control.

[12] = tested on: Puccinia graminis var. tritici; assay: whole plant or invertebrate; assay type: in vivo; conditions: 192 h, read-out: % control wheat rust in residual wash-off test
[13] = tested on: Puccinia graminis var. tritici; assay: whole plant or invertebrate; assay type: in vivo; conditions: 192 h, read-out: % control wheat rust in a photostability test

SMILES	% control White Mold [1]	pest or weed control at 20 ppm [2]	pest or weed control at 20 ppm [3]	pest or weed control at 20 ppm [4]	pest or weed control at 20 ppm [5]	pest or weed control at 20 ppm [6]	mortality at 1 % [7]	pest or weed control at 1500 g/ha [8]	pest or weed control at 20 ppm [9]	pest or weed control at 20 ppm [10]	pest or weed control at 20 ppm [11]	pest or weed control at 20 ppm [12]	pest or weed control at 20 ppm [13]	mortality at 200 ppm ([7]; 200 ppm in acetone)
Cc1ccc(S(=O)(=O)N(C)SN(c2cc(C(F)(F)F)ccc2Cl)c2c([N+](=O)[O-])cc([N+](=O)[O-])cc2C(F)(F)F)cc1	100%	100%	100%	100%	92%	0%	100%	100%	80%	50%	100%	100%	40%	–
CCCCN(SN(c1cc(C(F)(F)F)ccc1Cl)c1c([N+](=O)[O-])cc([N+](=O)[O-])cc1C(F)(F)F)S(=O)(=O)c1ccc(C)cc1	86%	100%	0%	92%	100%	75%	–	100%	100%	95%	100%	100%	100%	100%
CCCCN(SN(c1cc(C(F)(F)F)ccc1Cl)c1c([N+](=O)[O-])cc([N+](=O)[O-])cc1C(F)(F)F)S(=O)(=O)c1ccccc1C	100%	100%	80%	93%	100%	100%	100%	50%	100%	90%	100%	100%	98%	–
